Source: US9006450B2 (Boehringer Ingelheim International GmbH, priority 2010, dated 2015)

Molecular target: T1, human ACC2 (Homo sapiens, UniProt O00763)
T1 construct: made in house; host or cells: insect cells (baculoviral expression system)
Assay: ACC2 assay, spectrophotometric 384 well assay (NADH-linked, coupled lactate dehydrogenase/pyruvate kinase)
Format: biochemical
Conditions: ACC2 assay, hACC2 construct lacking 128 N-terminal amino acids, 25° C., 340 nm; read-out: IC50
Procedure, shortened: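 Human ACC2 lacking N-terminal 128 aa, baculovirus/insect-cell expressed, anion-exchange purified; 100 mM Tris pH 7.5, 10 mM citrate, 25 mM KHCO3, 1% DMSO. Started with 200 μM NADH and acetyl-CoA plus 500 μM ATP; PK/LDH-coupled A340 decrease read 15 min at 25° C. IC50 by nonlinear fit of low-control-subtracted slopes.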

T1 sequence (O00763 129-2458 limits assumed): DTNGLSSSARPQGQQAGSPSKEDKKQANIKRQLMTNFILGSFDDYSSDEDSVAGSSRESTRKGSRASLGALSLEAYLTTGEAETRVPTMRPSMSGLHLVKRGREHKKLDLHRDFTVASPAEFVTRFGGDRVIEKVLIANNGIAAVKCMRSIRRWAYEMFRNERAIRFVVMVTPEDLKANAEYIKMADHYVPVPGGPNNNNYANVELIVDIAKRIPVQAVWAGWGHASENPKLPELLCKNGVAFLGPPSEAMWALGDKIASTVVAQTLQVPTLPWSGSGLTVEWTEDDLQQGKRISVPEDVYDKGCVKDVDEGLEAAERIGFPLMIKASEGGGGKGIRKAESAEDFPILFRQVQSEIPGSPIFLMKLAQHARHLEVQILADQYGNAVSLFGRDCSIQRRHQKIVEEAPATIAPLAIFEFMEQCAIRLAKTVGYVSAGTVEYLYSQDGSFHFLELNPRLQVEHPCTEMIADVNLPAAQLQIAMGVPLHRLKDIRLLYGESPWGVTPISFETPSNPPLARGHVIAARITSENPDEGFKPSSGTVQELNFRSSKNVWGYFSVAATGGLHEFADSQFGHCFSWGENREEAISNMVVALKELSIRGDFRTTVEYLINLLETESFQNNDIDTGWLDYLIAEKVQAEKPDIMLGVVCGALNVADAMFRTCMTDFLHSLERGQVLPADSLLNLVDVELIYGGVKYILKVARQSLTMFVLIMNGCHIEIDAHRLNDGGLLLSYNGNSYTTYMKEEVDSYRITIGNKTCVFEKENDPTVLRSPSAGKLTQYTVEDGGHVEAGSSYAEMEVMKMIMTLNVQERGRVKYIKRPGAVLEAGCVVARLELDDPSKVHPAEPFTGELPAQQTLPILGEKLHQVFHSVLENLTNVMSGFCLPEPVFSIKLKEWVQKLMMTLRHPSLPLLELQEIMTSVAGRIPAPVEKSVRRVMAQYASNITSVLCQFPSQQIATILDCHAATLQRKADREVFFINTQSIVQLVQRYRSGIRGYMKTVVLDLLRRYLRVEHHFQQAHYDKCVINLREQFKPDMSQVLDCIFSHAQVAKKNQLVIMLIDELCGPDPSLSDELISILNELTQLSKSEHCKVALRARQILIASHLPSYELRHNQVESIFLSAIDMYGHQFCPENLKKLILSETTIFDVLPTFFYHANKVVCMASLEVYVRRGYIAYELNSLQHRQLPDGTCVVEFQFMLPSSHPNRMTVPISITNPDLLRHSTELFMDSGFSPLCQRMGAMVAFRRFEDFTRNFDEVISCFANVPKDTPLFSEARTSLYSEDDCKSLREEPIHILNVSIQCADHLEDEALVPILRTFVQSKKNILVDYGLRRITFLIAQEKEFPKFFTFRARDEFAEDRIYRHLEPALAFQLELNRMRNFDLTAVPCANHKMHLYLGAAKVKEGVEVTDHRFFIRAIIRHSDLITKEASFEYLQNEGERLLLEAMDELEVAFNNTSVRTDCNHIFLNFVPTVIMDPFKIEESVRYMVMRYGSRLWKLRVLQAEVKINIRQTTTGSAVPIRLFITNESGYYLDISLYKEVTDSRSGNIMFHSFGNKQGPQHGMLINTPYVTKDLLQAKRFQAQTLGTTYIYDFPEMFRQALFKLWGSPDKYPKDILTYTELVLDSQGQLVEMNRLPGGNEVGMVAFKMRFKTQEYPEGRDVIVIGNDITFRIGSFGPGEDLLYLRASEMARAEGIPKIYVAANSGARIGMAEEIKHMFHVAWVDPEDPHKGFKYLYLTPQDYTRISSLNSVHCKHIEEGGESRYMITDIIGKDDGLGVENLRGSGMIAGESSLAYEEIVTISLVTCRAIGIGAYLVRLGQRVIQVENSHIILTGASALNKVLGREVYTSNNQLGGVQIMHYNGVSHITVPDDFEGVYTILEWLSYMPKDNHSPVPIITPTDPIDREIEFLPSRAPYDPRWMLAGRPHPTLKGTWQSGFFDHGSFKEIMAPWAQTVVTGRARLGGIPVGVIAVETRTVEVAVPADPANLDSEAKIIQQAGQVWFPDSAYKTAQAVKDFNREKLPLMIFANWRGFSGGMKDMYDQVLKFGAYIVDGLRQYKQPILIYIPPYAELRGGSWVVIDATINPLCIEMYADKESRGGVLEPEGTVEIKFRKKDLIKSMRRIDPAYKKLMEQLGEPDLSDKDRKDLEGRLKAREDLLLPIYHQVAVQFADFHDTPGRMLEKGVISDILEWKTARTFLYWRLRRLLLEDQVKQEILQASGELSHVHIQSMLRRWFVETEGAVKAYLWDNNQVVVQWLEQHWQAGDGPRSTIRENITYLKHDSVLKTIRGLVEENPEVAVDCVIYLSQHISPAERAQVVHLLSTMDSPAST

Structure (SMILES)	IC50 [nM]
CC(=O)N[C@@H](C)c1ccc(C2CCN(c3ccc(OCC(C)C)c(F)c3)CC2)cc1 [Example 8.28]	150
COc1cc(N2CCC(c3ccc([C@H](C)NC(C)=O)cc3)CC2)ccc1OCC(C)C [Example 8.29]	890
CC(=O)N[C@@H](C)c1ccc(C2CCN(c3ccc(OCC(C)C)c(Cl)c3)CC2)cc1 [Example 8.30]	160
CCCOc1ccc(N2CCC(c3ccc([C@H](C)NC(C)=O)cc3)CC2)cc1C [Example 8.31]	1200
CCCOc1ccc(N2CCC(c3ccc([C@H](C)NC(C)=O)cc3)CC2)cc1C#N [Example 8.32]	3200
CCCOc1ccc(N2CCC(c3ccc([C@H](C)NC(C)=O)cc3)CC2)cc1OC [Example 8.33]	3500
CCCOc1ccc(N2CCC(c3ccc([C@H](C)NC(C)=O)cc3)CC2)cc1Cl [Example 8.34]	260
CC(=O)N[C@@H](C)c1ccc(C2CCN(c3ccc(OC4CCCC4)c(C)c3)CC2)cc1 [Example 8.35]	490
CC(=O)N[C@@H](C)c1ccc(C2CCN(c3ccc(OC4CCCC4)c(C#N)c3)CC2)cc1 [Example 8.36]	2200
CC(=O)N[C@@H](C)c1ccc(C2CCN(c3ccc(OC4CCCC4)c(F)c3)CC2)cc1 [Example 8.37]	660
COc1cc(N2CCC(c3ccc([C@H](C)NC(C)=O)cc3)CC2)ccc1OC1CCCC1 [Example 8.38]	1200
CC(=O)N[C@@H](C)c1ccc(C2CCN(c3ccc(OC4CCCC4)c(Cl)c3)CC2)cc1 [Example 8.39]	110
CCCCOc1ccc(N2CCC(c3ccc([C@H](C)NC(C)=O)cc3)CC2)cc1C [Example 8.40]	1400
CCCCOc1ccc(N2CCC(c3ccc([C@H](C)NC(C)=O)cc3)CC2)cc1C#N [Example 8.41]	4200
CCCCOc1ccc(N2CCC(c3ccc([C@H](C)NC(C)=O)cc3)CC2)cc1F [Example 8.42]	90
CCCCOc1ccc(N2CCC(c3ccc([C@H](C)NC(C)=O)cc3)CC2)cc1OC [Example 8.43]	2100
CCCCOc1ccc(N2CCC(c3ccc([C@H](C)NC(C)=O)cc3)CC2)cc1Cl [Example 8.44]	290
COc1ccc(N2CCC(c3ccc([C@H](C)NC(C)=O)cc3)CC2)cc1C#N [Example 8.45]	7000
COc1ccc(N2CCC(c3ccc([C@H](C)NC(C)=O)cc3)CC2)cc1Cl [Example 8.46]	1000
CC(=O)N[C@@H](C)c1ccc(C2CCN(c3ccc(OCC4CCO4)c(C)c3)CC2)cc1 (stereo partly shown) [Example 8.47]	2600
CC(=O)N[C@@H](C)c1ccc(C2CCN(c3ccc(OCC4CCO4)c(F)c3)CC2)cc1 (stereo partly shown) [Example 8.48]	1600
COc1cc(N2CCC(c3ccc([C@H](C)NC(C)=O)cc3)CC2)ccc1OCC1CCO1 (stereo partly shown) [Example 8.49]	26600
CC(=O)N[C@@H](C)c1ccc(C2CCN(c3ccc(OCC4CCO4)c(Cl)c3)CC2)cc1 (stereo partly shown) [Example 8.50]	1100
CCC(C)Oc1ccc(N2CCC(c3ccc([C@H](C)NC(C)=O)cc3)CC2)cc1C (stereo partly shown) [Example 8.51]	760
CCC(C)Oc1ccc(N2CCC(c3ccc([C@H](C)NC(C)=O)cc3)CC2)cc1C#N (stereo partly shown) [Example 8.52]	3000
CCC(C)Oc1ccc(N2CCC(c3ccc([C@H](C)NC(C)=O)cc3)CC2)cc1F (stereo partly shown) [Example 8.53]	300

Structure (SMILES)	IC50 [nM]
CCC(C)Oc1ccc(N2CCC(c3ccc([C@H](C)NC(C)=O)cc3)CC2)cc1OC (stereo partly shown) [Example 8.54]	1500
CCC(C)Oc1ccc(N2CCC(c3ccc([C@H](C)NC(C)=O)cc3)CC2)cc1Cl (stereo partly shown) [Example 8.55]	300
CCCC(C)Oc1ccc(N2CCC(c3ccc([C@H](C)NC(C)=O)cc3)CC2)cc1C (stereo partly shown) [Example 8.56]	1000
CCCC(C)Oc1ccc(N2CCC(c3ccc([C@H](C)NC(C)=O)cc3)CC2)cc1C#N (stereo partly shown) [Example 8.57]	3200
CCCC(C)Oc1ccc(N2CCC(c3ccc([C@H](C)NC(C)=O)cc3)CC2)cc1F (stereo partly shown) [Example 8.58]	370
CCCC(C)Oc1ccc(N2CCC(c3ccc([C@H](C)NC(C)=O)cc3)CC2)cc1OC (stereo partly shown) [Example 8.59]	840
CCCC(C)Oc1ccc(N2CCC(c3ccc([C@H](C)NC(C)=O)cc3)CC2)cc1Cl (stereo partly shown) [Example 8.60]	180
CCOc1ccc(N2CCC(c3ccc([C@H](C)NC(C)=O)cc3)CC2)cc1Cl [Example 8.61]	300
CCCOc1ccc(N2CCC(c3ccc([C@H](C)NC(C)=O)cc3)CC2)cc1F [Example 8.62]	200
CC(=O)N[C@@H](C)c1ccc(C2CCN(c3ccc(OCCC4CC4)cc3)CC2)cc1 [Example 8.63]	100
C/C=C/CCOc1ccc(N2CCC(c3ccc([C@H](C)NC(C)=O)cc3)CC2)cc1 [Example 8.64]	120
CC(=O)N[C@@H](C)c1ccc(C2CCN(c3ccc(OCC/C=C/C4CC4)cc3)CC2)cc1 [Example 8.65]	220
CC(=O)N[C@@H](C)c1ccc(C2CCN(c3ccc(OCC4CC4(F)F)cc3)CC2)cc1 (stereo partly shown) [Example 8.66]	60
CC(=O)N[C@@H](C)c1ccc(C2CCN(c3cccc(OCCC(C)C)c3)CC2)cc1 [Example 9.1, (S)—N-[1-(4-{1-[3-(Isopentyloxy)-phenyl]-piperidin-4-yl}-phenyl)-ethyl]-acetamide]	370
CCCC(C)Oc1cccc(N2CCC(c3ccc([C@H](C)NC(C)=O)cc3)CC2)c1 (stereo partly shown) [Example 9.2]	300
CC(=O)N[C@@H](C)c1ccc(C2CCN(c3cccc(OC4CCCOC4)c3)CC2)cc1 (stereo partly shown) [Example 9.3]	1400
CC(=O)N[C@@H](C)c1ccc(C2CCN(c3cccc(OCC(C)(C)C)c3)CC2)cc1 [Example 9.4]	40
C=CCOc1cccc(N2CCC(c3ccc([C@H](C)NC(C)=O)cc3)CC2)c1 [Example 9.5]	260
CC(=O)N[C@@H](C)c1ccc(C2CCN(c3cccc(OC4CCCCC4)c3)CC2)cc1 [Example 9.6]	130
COCCOc1cccc(N2CCC(c3ccc([C@H](C)NC(C)=O)cc3)CC2)c1 [Example 9.7]	560
CC#CCOc1cccc(N2CCC(c3ccc([C@H](C)NC(C)=O)cc3)CC2)c1 [Example 9.8]	200
COCCCOc1cccc(N2CCC(c3ccc([C@H](C)NC(C)=O)cc3)CC2)c1 [Example 9.9]	210
C=CCCOc1cccc(N2CCC(c3ccc([C@H](C)NC(C)=O)cc3)CC2)c1 [Example 9.10]	530
CC(=O)N[C@@H](C)c1ccc(C2CCN(c3cccc(OCc4cc(C)on4)c3)CC2)cc1 [Example 9.11]	170
CC(=O)N[C@@H](C)c1ccc(C2CCN(c3cccc(OCC4CCC4)c3)CC2)cc1 [Example 9.12]	250
CC(=O)N[C@@H](C)c1ccc(C2CCN(c3cccc(OCC4CCOCC4)c3)CC2)cc1 [Example 9.13]	570

Structure (SMILES)	IC50 [nM]
CC(=O)N[C@@H](C)c1ccc(C2CCN(c3cccc(OCCOC4CC4)c3)CC2)cc1 [Example 9.14]	270
CC(=O)N[C@@H](C)c1ccc(C2CCN(c3cccc(OCC4CCCCO4)c3)CC2)cc1 (stereo partly shown) [Example 9.15]	370
CCC(CC)Oc1cccc(N2CCC(c3ccc([C@H](C)NC(C)=O)cc3)CC2)c1 [Example 9.16]	690
CC(=O)N[C@@H](C)c1ccc(C2CCN(c3cccc(OCc4ccccc4)c3)CC2)cc1 [Example 9.17]	550
CC(=O)N[C@@H](C)c1ccc(C2CCN(c3cccc(OC(C)c4ccccc4)c3)CC2)cc1 (stereo partly shown) [Example 9.18]	150
CCCC(C)Oc1ccc(N2CCC(c3ccc([C@H](C)NC(C)=O)cc3)CC2)cc1 (stereo partly shown) [Example 9.19]	140
CC(=O)N[C@@H](C)c1ccc(C2CCN(c3ccc(OCCC(C)C)cc3)CC2)cc1 [Example 9.20]	90
CC(=O)N[C@@H](C)c1ccc(C2CCN(c3ccc(OCC(C)(C)C)cc3)CC2)cc1 [Example 9.21]	100
C=CCOc1ccc(N2CCC(c3ccc([C@H](C)NC(C)=O)cc3)CC2)cc1 [Example 9.22]	160
CC(=O)N[C@@H](C)c1ccc(C2CCN(c3ccc(OC4CCCCC4)cc3)CC2)cc1 [Example 9.23]	200
COCCOc1ccc(N2CCC(c3ccc([C@H](C)NC(C)=O)cc3)CC2)cc1 [Example 9.24]	470
CC#CCOc1ccc(N2CCC(c3ccc([C@H](C)NC(C)=O)cc3)CC2)cc1 [Example 9.25]	1100
COCCCOc1ccc(N2CCC(c3ccc([C@H](C)NC(C)=O)cc3)CC2)cc1 [Example 9.26]	220
C=CCCOc1ccc(N2CCC(c3ccc([C@H](C)NC(C)=O)cc3)CC2)cc1 [Example 9.27]	70
CC(=O)N[C@@H](C)c1ccc(C2CCN(c3ccc(OCc4cc(C)on4)cc3)CC2)cc1 [Example 9.28]	780
CC(=O)N[C@@H](C)c1ccc(C2CCN(c3ccc(OCC4CCC4)cc3)CC2)cc1 [Example 9.29]	60
CC(=O)N[C@@H](C)c1ccc(C2CCN(c3ccc(OCC4CCOCC4)cc3)CC2)cc1 [Example 9.30]	2300
CC(=O)N[C@@H](C)c1ccc(C2CCN(c3ccc(OCCOC4CC4)cc3)CC2)cc1 [Example 9.31]	4800
CC(=O)N[C@@H](C)c1ccc(C2CCN(c3ccc(OCC4CCCCO4)cc3)CC2)cc1 (stereo partly shown) [Example 9.32]	990
CCC(CC)Oc1ccc(N2CCC(c3ccc([C@H](C)NC(C)=O)cc3)CC2)cc1 [Example 9.33]	120
CC(=O)N[C@@H](C)c1ccc(C2CCN(c3ccc(OCc4ccccc4)cc3)CC2)cc1 [Example 9.34]	150
CC(=O)N[C@@H](C)c1ccc(C2CCN(c3ccc(OC(C)c4ccccc4)cc3)CC2)cc1 (stereo partly shown) [Example 9.35]	210
CC(=O)N[C@@H](C)c1ccc(C2CCN(c3ccc(OCC4CCC4)c(C#N)c3)CC2)cc1 [Example 9.36]	3300
CC(=O)N[C@@H](C)c1ccc(C2CCN(c3ccc(OCC4CCC4)c(C)c3)CC2)cc1 [Example 9.37]	690
